Data on 20 molecules can be found in patent US9228952B2, “Hematopoietic stem cell identification probe” (CANON KABUSHIKI KAISHA, priority 2012, dated 2016).

The nature of data set [1]: Measurement of fluorescence characteristics of compounds (fluorescence spectrophotometer). It counts as physicochemical. The conditions noted are these: 5 μM DMSO solution. On the procedure: With respect to each of the compounds 7 to 23, a 5 μM DMSO solution was prepared, and an excitation wavelength and a fluorescence wavelength were measured by using a fluorescence spectrophotometer FL4500 manufactured by Hitachi High-Technologies Corporation (Table 1).

Data set [2] concerns hematopoietic stem cells (bone marrow cells). Nature of the data set: Identification of hematopoietic stem cells in stained bone marrow cells by FACS with antibody markers (Experimental Examples 1-17, Comparative Examples 1-2). In kind it is cell-based, C57BL/6 mouse. Also on record: key to Identification of hematopoietic stem cells: A: Hematopoietic stem cells are identified very well.; B: Hematopoietic stem cells are identified well.; C: Hematopoietic stem cells are poorly identified. The following applies: for Identification of hematopoietic stem cells: mouse bone marrow cells, FACS. As to the method: A 1 mM DMSO solution of the compound 7 was added to an HBSS buffer containing 2% of FBS and 10 mM of HEPES, so as to obtain a stain of the compound 7 in a concentration of 1 μM. Bone marrow cells collected from a femur of a C57BL/6 mouse (of 12 weeks old) and hemolyzed were added to the stain in an amount of 1×10^6 cells/mL for exposure at 37° C. for 30 minutes. After the exposure, the cells were precipitated by centrifuge for removing the stain, and a blocking treatment was performed with 2.4G2 (anti-mouse Fcγ receptor II/III antibody-producing hybridoma supernatant). The blocked cells were further subjected to immunofluorescence staining with an anti c-Kit antibody, an anti Sca-1 antibody, an anti CD34 antibody and Lineage Marker. Furthermore, the cells were subjected to dead cell staining with TO-PRO-3. The respective antibodies used for fluorescence staining were selected so that the respective fluorescence wavelengths might not overlap one another and might not overlap the fluorescence wavelength of the compound 7 and the fluorescence wavelength of TO-PRO-3. Next, the resulting cells were analyzed with FACS Aria II cell sorter manufactured by BD Biosciences. In the analysis, cell populations having a low TO-PRO-3 signal were regarded as a target, so that the analysis could be performed on a cell population excluding dead cells.
First, fluorescence intensities of the cells obtained by analyzing fluorescence signals derived from the compound 7 based on signal intensities in two channels excited at 488 nm (PE-Cy5; 660/20 nm and PerCP-Cy 5.5; 710/50 nm: center wavelength/wavelength width) were developed into a cytogram.
Furthermore, among Lineage Marker negative cell fractions, cell fractions of Sca-1 positive, c-Kit positive and CD34 negative, which are used as markers for hematopoietic stem cells, were developed into cytograms as illustrated in FIG. 2 with respect to the two fluorescence signals derived from the compound 7 as in FIG. 1. […] Furthermore, merely cells identified by the compound 7 were separated by sorting.
Fluorescence signals derived from the compounds 8 to 23 were analyzed in the same manner as in Experimental Example 1 except that the compound 7 used in Experimental Example 1 was changed to each of the compounds 8 to 23.
Fluorescence signals derived from fluorescein were analyzed in the same manner as in Experimental Example 1 except that the compound 7 used in Experimental Example 1 was changed to fluorescein.
Fluorescence signals derived from Mito Tracker® Green FM were analyzed in the same manner as in Experimental Example 1 except that the compound 7 used in Experimental Example 1 was changed to Mito Tracker® Green FM.
The identification was evaluated in the following three grades A to C: […]

In data set [3] the test system is c-Kit positive hematopoietic stem cells (bone marrow cells). Put plainly: Experimental Example 19: exposure to compound 7 in the presence of test substances, c-Kit staining, FACS. In kind it is cell-based, mouse. As to the method: Cells collected from a mouse in the same manner as in Experimental Example 1 were exposed to the compound 7 in the presence of test substances of fumitremorgin C and digoxin (both in 1 μM). After performing a blocking treatment in the same manner as in Experimental Example 1, the resulting cells were stained with an anti c-Kit antibody, that is, a marker for hematopoietic stem cells and hematopoietic precursor cells. The cells were further subjected to the dead cell staining with TO-PRO-3. Next, the cells were analyzed with FACS Aria II cell sorter manufactured by BD Biosciences. In the analysis, cell populations having a low TO-PRO-3 signal were regarded as a target, so that the analysis could be performed on a cell population excluding dead cells.
In other words, hematopoietic stem cell groups that were c-Kit positive and negative for the compound 7-derived signal were confirmed to be reduced by adding the test substances.

The test system of data set [4] is CD48 negative and CD150 positive fraction of bone marrow cells. Put plainly: Experimental Example 18: compound 7 staining with anti CD48 / anti CD150 antibody markers, flow cytometry. In kind it is cell-based, mouse. The following applies: cytogram of two compound 7-derived fluorescence signals. An excerpt: Cells collected from a mouse were subjected to the exposure to the compound 7 and a blocking treatment in the same manner as in Experimental Example 1. In order to evaluate incorporation of antibody markers, used as test substances, of an anti CD48 antibody and an anti CD150 antibody by hematopoietic stem cells, the blocked cells were further stained with the anti CD48 antibody and the anti CD150 antibody. Furthermore, the resulting cells were subjected to dead cell staining with TO-PRO-3. Next, the cells were analyzed with an FACS Canto II flow cytometer manufactured by BD Biosciences. In the analysis, cell populations having a low TO-PRO-3 signal were regarded as a target, so that the analysis could be performed on a cell population excluding dead cells.

Where [5] appears, read: cells exposed to compound 7 in the presence of test substance 1 μM.

With `CCCCN1C(=O)/C(=c2\s/c(=C/c3ccc4c(c3)C3CCCC3N4c3ccc(OC)cc3)c(=O)n2CC)SC1=S` (stereo not shown) [Compound 7], in data set [1], the Excitation wavelength λex was 539 nm and the Fluorescence wavelength λem was 638 nm. Further, the “Whether hematopoietic stem cells can be identified (in words)” value in data set [2] (same manner as Experimental Example 1) was “hematopoietic stem cells can be identified”. For the same molecule, the “Identification of hematopoietic stem cells” value (from here on “Identification”) in data set [2] (stain 1 μM, 37° C., 30 minutes) is reported as “A”. Also, the “Lineage Marker negative, Sca-1 positive, c-Kit positive and CD34 negative hematopoietic stem cell fractions found in cell population having low incorporation of the probe” value in data set [2] (stain 1 μM, 37° C., 30 minutes, two channels excited at 488 nm) is 94.7%. In data set [3] (in the absence of an inhibitor (w/o inhibitors)), the “c-Kit positive, compound 7-derived signal negative hematopoietic stem cells in the whole cells” value (“c-Kit positive … in the whole cells” below) amounted to 0.75%. Moreover, the “Cells of CD48 negative and CD150 positive fraction present in region where hematopoietic stem cells were identified” value in data set [4] is recorded as 89.4%.
In data set [1], `CCN1C(=O)/C(=c2\s/c(=C/c3cc(Br)c4c(c3)C3CCCC3N4c3ccc(Br)cc3)c(=O)n2CC(=O)O)SC1=S` (stereo not shown) [Compound 8] had an Excitation wavelength λex of 513 nm and a Fluorescence wavelength λem of 600 nm. For the same molecule, the “Identification” value in data set [2] (stain 1 μM, 37° C., 30 minutes) is recorded as “A”.
As to `CCN1C(=O)/C(=c2\s/c(=C/c3ccc4c(c3)C3CCCC3N4c3ccc(OC)cc3)c(=O)n2CC(=O)O)SC1=S` (stereo not shown) [Compound 9], in data set [1], the Excitation wavelength λex was found to be 543 nm and the Fluorescence wavelength λem worked out at 638 nm. The “Identification” value in data set [2] (stain 1 μM, 37° C., 30 minutes) is on record as “A”.
In data set [1], `O=C(O)Cn1c(=O)/c(=C\c2ccc3c(c2)C2CCCC2N3Cc2ccccc2)s/c1=C1/SC(=S)N(Cc2ccccc2)C1=O` (stereo not shown) [Compound 10] showed an Excitation wavelength λex of 540 nm and a Fluorescence wavelength λem of 614 nm. Also, the “Identification” value in data set [2] (stain 1 μM, 37° C., 30 minutes) was “A”.
In data set [1], `COc1ccc(N2c3ccc(/C=c4/s/c(=C5/SC(=S)N(Cc6ccccc6)C5=O)n(CC(=O)O)c4=O)cc3C3CCCC32)cc1` (stereo not shown) [Compound 11] registered an Excitation wavelength λex of 542 nm and a Fluorescence wavelength λem of 643 nm. Besides, the “Identification” value in data set [2] (stain 1 μM, 37° C., 30 minutes) is reported as “A”.
The like results for `CCN1C(=O)/C(=c2\s/c(=C/c3ccc4c(c3)C3CCCC3N4c3ccccc3)c(=O)n2CC(=O)O)SC1=S` (stereo not shown) [Compound 12] were, in that order, 531 nm, 615 nm and “A”.
For `CCN1C(=O)/C(=c2\s/c(=C/c3ccc4c(c3)C3CCCC3N4c3ccc(SC)cc3)c(=O)n2CC(=O)O)SC1=S` (stereo not shown) [Compound 13], in data set [1], the Excitation wavelength λex amounted to 539 nm and the Fluorescence wavelength λem was determined as 636 nm. For the same molecule, the “Identification” value in data set [2] (stain 1 μM, 37° C., 30 minutes) is “A”.
For the molecule `CCN1C(=O)/C(=c2\s/c(=C/c3cc(Br)c4c(c3)C3CCCC3N4Cc3ccccc3)c(=O)n2CC(=O)O)SC1=S` (stereo not shown) [Compound 14], in data set [1], the Excitation wavelength λex came to 596 nm and the Fluorescence wavelength λem was 520 nm. Besides, the “Identification” value in data set [2] (stain 1 μM, 37° C., 30 minutes) is listed as “A”.
The like results for `C=CCN1C(=O)/C(=c2\s/c(=C/c3ccc4c(c3)C3CCCC3N4c3ccc(OC)cc3)c(=O)n2CC(=O)O)SC1=S` (stereo not shown) [Compound 15] were, in that order, 504 nm, 606 nm and “A”.
The like results for `CCN1C(=O)S/C(=c2/s/c(=C/c3ccc4c(c3)C3CCCC3N4Cc3ccccc3)c(=O)n2CC(=O)O)C1=O` (stereo not shown) [Compound 16] were, in that order, 500 nm, 578 nm and “B”.
In data set [1], `CCN1C(=O)/C(=c2\s/c(=C/c3ccc4c(c3)C3CCCC3N4Cc3ccccc3)c(=O)n2CC(=O)O)SC1=S` (stereo not shown) [Compound 17] had an Excitation wavelength λex of 535 nm and a Fluorescence wavelength λem of 612 nm. Moreover, in data set [2] (stain 1 μM, 37° C., 30 minutes), the “Identification” value is “A”.
In data set [1], `CCCN1C(=O)/C(=c2\s/c(=C/c3ccc4c(c3)C3CCCC3N4c3ccc(OC)cc3)c(=O)n2CC)SC1=S` (stereo not shown) [Compound 18] had an Excitation wavelength λex of 539 nm and a Fluorescence wavelength λem of 636 nm. Also, in data set [2] (stain 1 μM, 37° C., 30 minutes), the “Identification” value is given as “A”.
Take `CCCCCN1C(=O)/C(=c2\s/c(=C/c3ccc4c(c3)C3CCCC3N4c3ccc(OC)cc3)c(=O)n2CC)SC1=S` (stereo not shown) [Compound 19]: in data set [1], the Excitation wavelength λex turned out to be 538 nm and the Fluorescence wavelength λem came to 638 nm. Moreover, in data set [2] (stain 1 μM, 37° C., 30 minutes), the “Identification” value was “B”.
Regarding `CCn1c(=O)/c(=C\c2ccc3c(c2)C2CCCC2N3c2ccccc2)s/c1=C1/SC(=S)N(CC(=O)O)C1=O` (stereo not shown) [Compound 20], in data set [1], the Excitation wavelength λex came to 533 nm and the Fluorescence wavelength λem was determined as 615 nm. Further, the “Identification” value in data set [2] (stain 1 μM, 37° C., 30 minutes) is on record as “B”.
Turning to `CCN1C(=O)/C(=c2\s/c(=C/c3ccc4c(c3)C3CCCC3N4c3cccc(SC)c3)c(=O)n2CC(=O)O)SC1=S` (stereo not shown) [Compound 21], in data set [1], the Excitation wavelength λex turned out to be 530 nm and the Fluorescence wavelength λem stood at 612 nm. For the same molecule, in data set [2] (stain 1 μM, 37° C., 30 minutes), the “Identification” value is recorded as “A”.
On the same counts, the results for `COc1ccc(N2c3ccc(/C=C4/SC(=S)N(CC(=O)NCC(=O)O)C4=O)cc3C3CCCC32)cc1` (stereo not shown) [Compound 22] are 511 nm, 626 nm and “A”.
`O=C(O)CNC(=O)CN1C(=O)/C(=C\c2ccc3c(c2)C2CCCC2N3c2ccccc2)SC1=S` (stereo not shown) [Compound 23]: in data set [1], the Excitation wavelength λex is 499 nm and the Fluorescence wavelength λem came out at 598 nm. Also, the “Identification” value in data set [2] (stain 1 μM, 37° C., 30 minutes) is “A”.
Regarding `O=C1OC2(c3ccc(O)cc3Oc3cc(O)ccc32)c2ccccc21` [Fluorescein, fluorescein, reference compound], the “Identification” value in data set [2] (stain 1 μM, 37° C., 30 minutes) is “C (not stained”.
`C[C@H]1O[C@@H](O[C@H]2[C@@H](O)C[C@H](O[C@H]3[C@@H](O)C[C@H](O[C@H]4CC[C@@]5(C)[C@H](CC[C@@H]6[C@@H]5C[C@@H](O)[C@]5(C)[C@@H](C7=CC(=O)OC7)CC[C@]65O)C4)O[C@@H]3C)O[C@@H]2C)C[C@H](O)[C@@H]1O` [digoxin]: the “c-Kit positive … in the whole cells” value in data set [3] (setting [5]) worked out at 0.50%.
Consider `COc1ccc2c3c([nH]c2c1)[C@H](C=C(C)C)N1C(=O)[C@@H]2CCCN2C(=O)[C@@H]1C3` [fumitremorgin C], for which the “c-Kit positive … in the whole cells” value in data set [3] (setting [5]) amounted to 0.00%.
